# Measured values reported in patent US11958842B2, “Substituted phenazines and methods of treating cancer and bacterial diseases” (Adjutec Pharma AS, priority 2016, dated 2024).
# Where two headings read alike, the source gives them in different places.
# Key:
# [1] = system: human acute myeloid leukemia cell line MOLM-13; assay: Cytotoxicity, WST-1 and nuclear morphology (Example 73); assay type: cell-based; conditions: Homo sapiens
# How it was run: (§1)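 MOLM-13 (RPMI/FBS), NRK and H9c2 (DMEM/10% FBS) cells under 2% or 20% O2 at 37° C were exposed to analogues for 24 h (≤1% DMSO). Viability was read by WST-1, and cell death by Hoechst 33342 nuclear morphology; EC50 came from four-parameter regression.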
# [2] = system: normal rat kidney epithelial (NRK) cells; assay: as above; assay type: cell-based; conditions: Rattus norvegicus
# How it was run: as §1
# [3] = system: rat cardiomyoblast (H9c2) cells; assay: as above; assay type: cell-based; conditions: Rattus norvegicus; H9c2, 19% O2, 24 hours of incubation; read-out: EC50 (μM) H9c2 19% O2
# How it was run: as §1
# hepG2 = assay: Cytotoxicity (Example 73, Table 2); assay type: cell-based; conditions: Homo sapiens; hepG2, 24 hours of incubation; read-out: EC50 (μM) hepG2
# [4] = Parallel artificial membrane permeability assay (PAMPA); conditions: PAMPA, 50 μM in PBS, room temperature, five hours
# [5] = system: methicillin-resistant S. aureus MRSA A4-37; assay: Microbroth dilution MIC; assay type: cell-based; conditions: compound alone
# Method: (§2) Day 1: • Plate bacterial strain(s) on appropriate media: • Gram-negative bacteria with ESBLs or carbapenemases: green agar plates with 100 mg/L ampicillin • Gram-negative bacteria without β-lactamases: green agar plates • Gram-positive bacteria (Staphylococci and Enterococci): blood agar plates • Incubate o.n. at 37° C.
# (§3) Prepare the Bacterial Inoculum: • Prepare a 0.5 McFarland suspension of bacteria in 0.85% NaCl. (Should be used within 15 min of preparation). • Dilute the 0.5 McFarland suspension 1:100 into MH broth.
# (§4) Check the inoculum by diluting the prepared bacterial suspension 1:100 (10 μl bacterial suspension+990 μl 0.85% NaCl). Plate 10 μl of the dilution on MH agar plates (×2). Incubate o.n. at 37° C., count the colonies and calculate the final CFU/ml inoculum in the plate by multiplying the average number of colonies with 10000 and divide by 2. The final inoculum should be between 3-7×10^5 CFU/ml. • Add 50 μl of the prepared bacterial suspension to each well in the microtiter plate except negative growth control.
# (§5) Preparation of Compounds/Antibiotics • Calculate the desired concentration-range and volume of the compounds/antibiotics in the assay. For antibiotics this will depend on the MIC to meropenem of the bacterial strains to be tested. Dilute the stock solution in MH broth. Make subsequent 2-fold dilutions in MH broth of the desired concentrations if a concentration range is to be tested (remember the extra dilution factor in the assay plate). Always include extra volume for pipetting. Take into consideration stock solutions that are made in buffers that have an effect on bacterial growth (e.g. DMSO).
# (§6) This experimental design was used for the results in Tables 4 and 5 below. In Table 4, inhibitor concentration dependency on the MIC of meropenem was studied.
# [6] = system: vancomycin-resistant E. faecium vanA A1-22; assay: Microbroth dilution MIC; assay type: cell-based; conditions: compound alone
# Method: as §2, §3, §4, §5, §6
smiles,measurement,setting,value
"COc1cccc2c1[n+]([O-])c1cccc(O)c1[n+]2O [Example 5a, 1-hydroxy-6-methoxyphenazine 5.10-dioxide, reference compound]",EC50,"[1]; MOLM-13, 2% O2, 24 hours of incubation, read-out: EC50 (μM) MOLM-13 2% O2",0.77 ± 0.13 µM
same,EC50,"[1]; MOLM-13, 19% O2, 24 hours of incubation, read-out: EC50 (μM) MOLM-13 19% O2",1.4 ± 0.3 µM
same,EC50,"[2]; 2% O2, 24 hours of incubation, read-out: EC50 (μM) NRK 2% O2",76 ± 14 µM
same,EC50,"[2]; 19% O2, 24 hours of incubation, read-out: EC50 (μM) NRK 19% O2",77 ± 11 µM
same,EC50,[3],46 ± 4.1 µM
same,EC50,hepG2,70 µM
same,LogPeff,[4],−5.29
same,MIC A4-37 S. aureus MRSA,[5],< 0.5 µg/mL
same,MIC A1-22 E. faecium vanA,[6],< 8 µg/mL
